Read-outs that look alike come from different tables or passages of the source.
Tests used:
[1] = tested on: rat peritoneal mast cells; test: Mast cell stabilization test: histamine release inhibition; format: cell-based, Wistar male rats; settings: for inhibition at 100 µM: Rattus norvegicus, Mast cell, 100 µM of sodium cromoglycate
Protocol: (§1) Peritoneal rat mast cells are collected from 250 to 300 g Wistar male rats by the following procedure. Following sacrifice, each rat is injected into the peritoneal cavity with 10 ml of ice cold HEPES-buffered salt solution (HBSS), pH 7.2, containing 5 U/ml heparin. The HBSS contains 137 mM of […], 10mM HEPES, 5mM D-glucose, 2.7 mM KCl, 0.4 mM NaH₂PO₄, 0.5 mM MgCl₂ and 1 % foetal calf serum (FCS). The abdomen is massaged gently for 2 to 3 minutes and then an incision is made in the abdomen, the buffer removed by a pipette, and the peritoneal cavity lavaged twice with ice-cold HBSS. The extract is then centrifuged at 200 rpm for 10 minutes at 20°C to collect the peritoneal mast cells. These cells are then suspended again in HBSS. A count of cells present is made using an aliquot of this suspension by staining with Kimura metachromatic stain. Typically, about 1.2 to 1.7x10⁶ mast cells are collected from each animal. The rat mast cells are then activated using a Compound 48/80 in the presence of the test aromatic and antihistamine compounds and histamine-release measured as follows. 720 µl aliquots containing 9 x 10⁴ mast cells at 37°C are added to vials containing various combinations of aromatic flavour compounds. The concentrations of tyloxapol, menthol, camphor, and eucalyptol are 0.7 %, 0.025 %, 0.015 %, and 0.0075 % respectively. The solutions are incubated for about 10 minutes before 200 µl aliquots are added to tubes containing 25 µl of Compound 48/80, 25 µl of sodium cromoglycate and/or buffer, giving a concentration of Compound 48/80 and sodium cromoglycate in the tubes of […] and 0.005 % respectively. The histamine release reactions in the tubes is terminated after 10 minutes (37°C) by adding 750 µl of ice-cold HBSS and centrifuging the resulting solution for 10 minutes at 2000 rpm at 4°C. The histamine released by stimulus and the total cell histamine content are respectively determined by assaying the supernatant liquid after acidification with 5 % trichloroacetic acid (TCA) and by disintegrating the cells in 5 % (TCA) followed by analysis by automated spectrofluoremetry. […] Eucalyptol at 0.0075 % gave a 9 % (non-significant) inhibitory effect. Menthol at 0.025 % was not effective.

[2] = tested on: rat peritoneal mast cells; test: Mast cell stabilization test: induced histamine release; format: cell-based, Wistar male rats; settings: at the concentrations used: sodium cromoglycate 0.005 %, menthol 0.025 %, camphor 0.015 %, eucalyptol 0.0075 %
Protocol: as §1, with “(The net histamine release induced by compound 48/80” for “Eucalyptol”, “the concentration used (0.1 µg/ml)” for “0.0075 % gave a 9 % (non-significant) inhibitory effect. Menthol at 0.025 %”, “about three times the net histamine release induced by tyloxapol (15.07 ± 2.0 %)).” for “not effective.”

Compound	inhibition of histamine release against Compound 48/80 and tyloxapol-induced histamine release ([1]; camphor at 0.015 %, series of five experiments) [%]	release of histamine induced by the substance [2]	inhibitory effect on histamine release ([1]; eucalyptol at 0.0075 %, non-significant) [%]	inhibition of histamine release ([1]; menthol at 0.025 %)	inhibition at 100 µM ([1]; read-out: inhibition of Compound 48/80-induced histamine release) [%]	inhibition at 100 µM ([1]; read-out: inhibition of tyloxapol-induced histamine release) [%]
CC12CCC(CC1=O)C2(C)C (stereo not drawn) [camphor]	45	did not induce release of histamine				
CC12CCC(CC1)C(C)(C)O2 [eucalyptol]		did not induce release of histamine	9			
CC1CCC(C(C)C)C(O)C1 (stereo not drawn) [menthol]		did not induce release of histamine		not effective		
O=C(O)c1cc(=O)c2c(OCC(O)COc3cccc4oc(C(=O)O)cc(=O)c34)cccc2o1 [sodium cromoglycate]		did not induce release of histamine			67	152
